Assay results: patent US5023087A, “Efficient method for preparation of prolonged release liposome-based drug delivery system” (Liposome Technology, Inc., priority 1989, dated 1991)

What was measured:
[1] = Plasma levels of immunoreactive sCT (radio-immunoassay) after IM injection; format: in vivo, rats; settings: 1 ug
Experimental: Rats weighing 95 to 105 gm were injected intramuscularly in the forelimbs with sCT or sCT-MLVs. At each time point, four rats were bled by cardiac puncture and the blood collected in pre-chilled EDTA containing tubes. The plasma was collected after centrifugation at 4° C. and quickly frozen. The frozen samples were sent to Hazleton Laboratories for sCT radio-immunoassay (RIA). […] Thus, sCT-MLVs injected intramuscularly can achieve prolonged delivery to the systemic circulation.

[2] = Clearance of 125I-sCT from the intramuscular or subcutaneous site of injection; format: in vivo, Sprague-Dawley rats; settings: free drug, FIG. 2/3
Experimental: The rate of clearance of sCT from a given liposome furmulation was determined by monitoring the clearance of ^125 I-sCT from the intramuscular site of injection. Salmon calcitonin was spiked with ^1251 -sCT and encapsulated in MLVs as described in Example I in such a way that after the removal of non-liposome associated drug, the injection sample contained about 10,000 cpm of ^125 I per injection.
Male Sprague-Dawley rats weighing 95 to 100 g were lightly anesthetized with ether, and 20 ul or 100 ul of the ^125 I-sCT liposome samples were injected either in the lower part of the forelimbs or the hindlimbs respectively. Sixteen to twenty rats were used in each experiment. […] At each time point, two rats were anesthetized for blood sampling (two ml blood were drawn and counted for ^125 I radioactivity). […] The limbs were inserted into tubes and then counted for remaining radioactivity in a gamma counter. The eight to ten time points shown in FIG. 2 were selected so that the half-life of clearance from the IM site could be determined by a semi-log plot of the radioactivity remaining versus time after injection as shown in FIG. 3. […]
The urine and feces from the two rats kept in metabolic cages throughout the experiment were collected and counted for radioactivity. […]

[3] = Apparent first order absorption rate constant of gentamicin from urinary excretion after IM injection; settings: lipid dose 0 umol/inj.
Experimental: The gentamicin concentration in the liposomes formulation was determined by the EMIT assay (Syva, Palo Alto, CA) after lysis in triton X-100.
Therefore, the apparent absorption rate constant, Ka, was estimated with the urinary excretion.
One group of four rats was immediately placed in metabolic cages (one rat per cage) and urine was collected at 24 hour intervals for the duration of the experiment. Cages were rinsed with distilled water after each collection and the volume of the pooled urine and rinses were recorded. An aliquot of each sample was frozen until assay.

Compound	plasma immunoreactive sCT in circulation [1]	clearance half-life from the site of IM injection [2]	Rate Const. Ka (apparent first order absorption rate constant) [3]
CC(C)C[C@H](NC(=O)[C@H](CCCCN)NC(=O)CNC(=O)[C@H](CC(C)C)NC(=O)[C@@H](NC(=O)[C@@H]1CSSC[C@H](N)C(=O)N[C@@H](CO)C(=O)N[C@@H](CC(N)=O)C(=O)N[C@@H](CC(C)C)C(=O)N[C@@H](CO)C(=O)N[C@@H]([C@@H](C)O)C(=O)N1)C(C)C)C(=O)N[C@@H](CO)C(=O)N[C@@H](CCC(N)=O)C(=O)N[C@@H](CCC(=O)O)C(=O)N[C@@H](CC(C)C)C(=O)N[C@@H](Cc1c[nH]cn1)C(=O)N[C@@H](CCCCN)C(=O)N[C@@H](CC(C)C)C(=O)N[C@@H](CCC(N)=O)C(=O)N[C@H](C(=O)N[C@@H](Cc1ccc(O)cc1)C(=O)N1CCC[C@H]1C(=O)N[C@@H](CCCNC(=N)N)C(=O)N[C@H](C(=O)N[C@@H](CC(N)=O)C(=O)N[C@H](C(=O)NCC(=O)N[C@@H](CO)C(=O)NCC(=O)N[C@H](C(=O)N1CCC[C@H]1C(N)=O)[C@@H](C)O)[C@@H](C)O)[C@@H](C)O)[C@@H](C)O [F-sCT, Salmon calcitonin]	rapidly disappeared from circulation	a few minutes	
gentamicin [Gentamicin solution]			5.3 h⁻¹
